Data reported in patent US10227342B2 (ARIAD PHARMACEUTICALS, INC., priority 2014, dated 2019).

Assays:
Type in all cases: cell-based
[1] = target: human EGFR exon 20 insertion NPG (H773_V774insNPG) (Homo sapiens, UniProt P00533, INS773NPG, cells depend on it); test: Ba/F3-EGFR-Exon20-NPG cell anti-proliferative assay (CellTiter 96 MTS, 72 h); conditions: read-out: EGFR exon 20 NPG insertion IC50
Method: (§1) Ba/F3 cells expressing EGFR exon 20 insertions (named Ba/F3-EGFR-Exon20-NPG or Ba/F3-EGFR-Exon20-ASV) can proliferate in the absence of IL-3. The anti-proliferative activity of compounds were determined as follows: BaF3-EGFR-Exon20 cells (NPG or ASV) seeded in 96 well plates (2500 cells/well) were treated with test compound (dissolved in DMSO) at a series of concentrations (4-fold dilution, top concentration: 10,000 nM). The plates were incubated for 72 h in a 37° C. incubator with 5% CO2, and the number of viable cells in each well were measured indirectly by CellTiter 96® Aqueous One Solution Cell Proliferation Assay (Promega) This assay is a colorimetric method for determining the number of viable cells through measurement of their metabolic activity by detection of enzymatic conversion of tetrazolium salts into blue formazan derivatives. Reagent (20 μL) was added into each well, and the plates were returned to the incubator for 2 h. The absorbance in each well was then measured at 490 nm using an Envision plate reader (Perkin Elmer).

[2] = target: human EGFR E746-A750 deletion and T790M Mutation (DT) (Homo sapiens (Human), UniProt P00533, DEL746-750/T790M); test: Ba/F3-EGFR-Del/T790M cell anti-proliferative assay (CellTiter 96 MTS, 72 h); conditions: Ba/F3-EGFR-Del/T790M cells; for IC50: read-out: EGFR exon 19 deletion and T790M mutation IC50
[3] = target: Her2 exon 20 YVMA insertion (A775_G776ins YVMA) (Homo sapiens (Human), UniProt P04626, INS775YVMA); test: Ba/F3-Her2 Exon20 YVMA cell anti-proliferative assay (CellTiter 96 MTS, 72 h); conditions: Ba/F3-Her2 Exon20 YVMA cells
Excerpt: Ba/F3 cells expressing Her2 Exon20 YVMA insertions (named Ba/F3-Her2 Exon20 YVMA) can proliferate in the absence of IL-3.

[4] = target: human EGFR exon 20 insertion ASV (V769_D770insASV) (Homo sapiens (Human), UniProt P00533, INS769ASV); test: Ba/F3-EGFR-Exon20-ASV cell anti-proliferative assay (CellTiter 96 MTS, 72 h); conditions: Ba/F3-EGFR-Exon20-ASV cells;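 also: Ba/F3 cells bearing the EGFR exon 20 ASV insertion, a line able to proliferate without IL-3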
Sequence of human EGFR exon 20 insertion ASV (V769_D770insASV) (P00533 other isoform, or with tags, fused parts or gaps ins ASV behind 769): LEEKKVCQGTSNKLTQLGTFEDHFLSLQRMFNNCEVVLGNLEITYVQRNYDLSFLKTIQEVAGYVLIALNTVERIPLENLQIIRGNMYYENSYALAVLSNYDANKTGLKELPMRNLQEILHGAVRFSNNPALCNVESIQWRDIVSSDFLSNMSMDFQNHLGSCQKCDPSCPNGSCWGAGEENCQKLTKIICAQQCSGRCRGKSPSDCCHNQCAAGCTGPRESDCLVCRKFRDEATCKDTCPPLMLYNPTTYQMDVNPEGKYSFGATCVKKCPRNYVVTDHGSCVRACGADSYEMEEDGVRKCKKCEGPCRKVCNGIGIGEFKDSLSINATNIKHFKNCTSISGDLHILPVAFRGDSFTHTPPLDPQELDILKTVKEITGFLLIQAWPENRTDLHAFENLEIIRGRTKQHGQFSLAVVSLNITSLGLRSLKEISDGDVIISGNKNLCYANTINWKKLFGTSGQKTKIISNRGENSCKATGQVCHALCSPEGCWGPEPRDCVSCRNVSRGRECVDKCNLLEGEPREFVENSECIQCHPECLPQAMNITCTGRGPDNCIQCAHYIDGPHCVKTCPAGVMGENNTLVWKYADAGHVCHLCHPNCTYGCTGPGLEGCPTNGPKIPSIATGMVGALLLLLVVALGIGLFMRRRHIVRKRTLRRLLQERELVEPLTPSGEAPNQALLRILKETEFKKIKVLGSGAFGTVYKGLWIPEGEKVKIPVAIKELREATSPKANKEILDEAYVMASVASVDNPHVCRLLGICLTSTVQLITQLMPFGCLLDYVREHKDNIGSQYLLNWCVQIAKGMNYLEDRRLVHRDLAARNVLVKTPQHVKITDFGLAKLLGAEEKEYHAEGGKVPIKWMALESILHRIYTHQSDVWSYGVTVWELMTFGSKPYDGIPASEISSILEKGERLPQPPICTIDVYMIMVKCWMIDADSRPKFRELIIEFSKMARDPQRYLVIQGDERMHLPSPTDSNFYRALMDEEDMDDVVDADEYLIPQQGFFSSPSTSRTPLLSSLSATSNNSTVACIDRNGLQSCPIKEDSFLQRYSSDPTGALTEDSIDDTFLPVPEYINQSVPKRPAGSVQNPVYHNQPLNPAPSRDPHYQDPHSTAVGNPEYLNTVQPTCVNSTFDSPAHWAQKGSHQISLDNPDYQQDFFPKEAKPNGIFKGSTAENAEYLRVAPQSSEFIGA
Method: as §1

Sequence of human EGFR E746-A750 deletion and T790M Mutation (DT) (P00533 other isoform, or with tags, fused parts or gaps T790M/del E746-A750): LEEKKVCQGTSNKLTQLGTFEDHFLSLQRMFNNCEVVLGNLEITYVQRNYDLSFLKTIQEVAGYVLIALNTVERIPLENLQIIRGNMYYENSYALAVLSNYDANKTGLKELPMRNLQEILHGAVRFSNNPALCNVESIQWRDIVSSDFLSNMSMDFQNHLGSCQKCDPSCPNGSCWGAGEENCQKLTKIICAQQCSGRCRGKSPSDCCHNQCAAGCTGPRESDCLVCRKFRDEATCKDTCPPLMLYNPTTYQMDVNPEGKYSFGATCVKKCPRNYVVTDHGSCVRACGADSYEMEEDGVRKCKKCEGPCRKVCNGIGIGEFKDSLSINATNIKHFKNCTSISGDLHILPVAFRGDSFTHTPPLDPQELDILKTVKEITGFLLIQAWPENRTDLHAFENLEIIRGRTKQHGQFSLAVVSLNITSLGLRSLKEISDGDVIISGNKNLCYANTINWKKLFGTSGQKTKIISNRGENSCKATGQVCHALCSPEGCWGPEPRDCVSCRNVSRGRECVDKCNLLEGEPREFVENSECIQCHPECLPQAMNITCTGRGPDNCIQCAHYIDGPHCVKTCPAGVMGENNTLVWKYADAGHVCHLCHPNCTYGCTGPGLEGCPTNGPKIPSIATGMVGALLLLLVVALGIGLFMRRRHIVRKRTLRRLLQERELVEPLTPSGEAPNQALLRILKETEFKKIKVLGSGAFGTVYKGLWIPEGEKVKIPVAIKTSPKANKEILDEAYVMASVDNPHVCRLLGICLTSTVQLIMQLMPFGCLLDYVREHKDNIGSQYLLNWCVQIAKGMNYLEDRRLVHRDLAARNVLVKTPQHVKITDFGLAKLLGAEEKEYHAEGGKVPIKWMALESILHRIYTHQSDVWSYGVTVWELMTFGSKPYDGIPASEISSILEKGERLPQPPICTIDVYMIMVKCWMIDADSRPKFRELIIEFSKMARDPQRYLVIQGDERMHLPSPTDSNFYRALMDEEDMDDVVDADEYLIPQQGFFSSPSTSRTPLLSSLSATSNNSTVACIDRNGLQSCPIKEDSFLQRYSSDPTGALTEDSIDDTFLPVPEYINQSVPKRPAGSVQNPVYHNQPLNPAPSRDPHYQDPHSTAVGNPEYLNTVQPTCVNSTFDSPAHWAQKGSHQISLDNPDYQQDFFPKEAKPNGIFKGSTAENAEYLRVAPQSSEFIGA
Sequence of Her2 exon 20 YVMA insertion (A775_G776ins YVMA) (P04626 other isoform, or with tags, fused parts or gaps ins YVMA behind 775): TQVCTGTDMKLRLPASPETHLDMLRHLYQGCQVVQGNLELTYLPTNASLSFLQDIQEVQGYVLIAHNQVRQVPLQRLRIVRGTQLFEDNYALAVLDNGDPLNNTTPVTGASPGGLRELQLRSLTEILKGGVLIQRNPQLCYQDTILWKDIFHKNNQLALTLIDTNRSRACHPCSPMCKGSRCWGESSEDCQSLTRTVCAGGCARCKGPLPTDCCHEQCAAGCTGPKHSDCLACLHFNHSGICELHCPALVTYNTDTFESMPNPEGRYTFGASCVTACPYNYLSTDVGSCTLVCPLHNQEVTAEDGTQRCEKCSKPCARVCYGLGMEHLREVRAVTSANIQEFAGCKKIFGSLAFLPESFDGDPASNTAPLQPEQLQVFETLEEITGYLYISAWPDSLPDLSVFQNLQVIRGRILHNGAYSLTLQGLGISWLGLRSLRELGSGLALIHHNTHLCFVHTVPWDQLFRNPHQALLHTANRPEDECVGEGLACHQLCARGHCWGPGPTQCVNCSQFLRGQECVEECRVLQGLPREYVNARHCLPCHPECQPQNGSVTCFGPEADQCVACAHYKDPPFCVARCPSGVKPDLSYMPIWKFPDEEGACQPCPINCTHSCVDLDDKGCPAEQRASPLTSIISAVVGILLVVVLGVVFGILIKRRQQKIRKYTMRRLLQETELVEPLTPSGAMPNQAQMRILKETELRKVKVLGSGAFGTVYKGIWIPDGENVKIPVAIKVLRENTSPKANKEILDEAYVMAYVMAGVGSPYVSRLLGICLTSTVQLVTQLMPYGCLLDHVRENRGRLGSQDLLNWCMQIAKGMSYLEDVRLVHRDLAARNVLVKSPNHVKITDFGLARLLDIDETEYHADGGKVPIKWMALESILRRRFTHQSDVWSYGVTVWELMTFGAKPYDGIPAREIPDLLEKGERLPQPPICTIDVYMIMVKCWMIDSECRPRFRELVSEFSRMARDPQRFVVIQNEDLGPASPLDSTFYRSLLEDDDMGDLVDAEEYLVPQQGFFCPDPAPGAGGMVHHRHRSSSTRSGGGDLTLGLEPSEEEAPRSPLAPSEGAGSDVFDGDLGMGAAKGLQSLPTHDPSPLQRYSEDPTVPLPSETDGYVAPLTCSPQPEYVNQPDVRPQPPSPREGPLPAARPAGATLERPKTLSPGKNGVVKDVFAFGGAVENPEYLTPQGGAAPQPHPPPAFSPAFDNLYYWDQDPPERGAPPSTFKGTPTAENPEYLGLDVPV
Sequence of human EGFR exon 20 insertion NPG (H773_V774insNPG) (P00533 with tags, fused parts or gaps INS773NPG limits assumed): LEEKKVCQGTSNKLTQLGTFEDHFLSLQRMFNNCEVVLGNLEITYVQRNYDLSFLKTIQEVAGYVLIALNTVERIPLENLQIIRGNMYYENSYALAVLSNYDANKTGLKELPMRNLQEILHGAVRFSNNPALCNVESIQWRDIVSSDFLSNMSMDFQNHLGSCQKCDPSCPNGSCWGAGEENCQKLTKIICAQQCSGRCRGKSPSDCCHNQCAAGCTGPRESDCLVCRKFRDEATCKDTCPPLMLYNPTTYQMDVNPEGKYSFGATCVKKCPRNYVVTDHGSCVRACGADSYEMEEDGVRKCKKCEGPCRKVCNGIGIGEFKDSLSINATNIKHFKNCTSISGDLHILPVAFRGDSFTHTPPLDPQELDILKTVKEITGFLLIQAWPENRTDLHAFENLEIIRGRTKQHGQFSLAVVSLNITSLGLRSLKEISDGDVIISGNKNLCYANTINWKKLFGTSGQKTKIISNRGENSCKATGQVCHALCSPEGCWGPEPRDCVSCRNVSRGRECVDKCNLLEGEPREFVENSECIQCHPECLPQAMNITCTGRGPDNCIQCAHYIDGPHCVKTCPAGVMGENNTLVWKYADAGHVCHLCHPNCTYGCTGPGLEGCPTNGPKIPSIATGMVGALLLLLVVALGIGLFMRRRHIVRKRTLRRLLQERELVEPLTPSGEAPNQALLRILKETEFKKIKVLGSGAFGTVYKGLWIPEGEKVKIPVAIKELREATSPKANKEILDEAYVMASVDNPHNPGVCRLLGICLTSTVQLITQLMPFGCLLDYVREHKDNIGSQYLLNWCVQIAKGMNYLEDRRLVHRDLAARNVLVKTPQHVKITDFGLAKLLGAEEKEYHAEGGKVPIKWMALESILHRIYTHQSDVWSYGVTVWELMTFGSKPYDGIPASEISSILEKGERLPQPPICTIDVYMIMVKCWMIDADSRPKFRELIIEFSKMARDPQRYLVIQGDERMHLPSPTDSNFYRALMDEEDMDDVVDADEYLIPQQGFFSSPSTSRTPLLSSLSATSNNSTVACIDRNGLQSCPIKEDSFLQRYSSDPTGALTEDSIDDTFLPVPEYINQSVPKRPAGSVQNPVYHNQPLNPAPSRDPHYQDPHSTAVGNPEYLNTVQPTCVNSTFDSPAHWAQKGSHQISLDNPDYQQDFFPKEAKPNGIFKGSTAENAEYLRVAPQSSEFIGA

| SMILES | IC50 [1] [nM] | IC50 [2] [nM] | IC50 [3] [nM] | IC50 [4] [nM] | EGFR exon 19 deletion and T790M mutation IC50 [2] |
| --- | --- | --- | --- | --- | --- |
| C=CC(=O)Nc1cc(Nc2ncc(CC)c(-c3cnn4ccccc34)n2)c(OC)cc1N(C)CCN(C)C [Example 1, N-(2-((2-(dimethylamino)ethyl)(methyl)amino)-5-((5-ethyl-4-(pyrazolo[1,5-a]pyridin-3-yl)pyrimidin-2-yl)amino)-4-methoxyphenyl)acrylamide] | < 100 | < 100 | 100 to 500 | – | – |
| C=CC(=O)Nc1cc(Nc2ncnc(-c3c(C4=CCOCC4)n(C)c4ccccc34)n2)c(OC)cc1N(C)CCN(C)C [Example 2, N-(5-((4-(2-(3,6-dihydro-2H-pyran-4-yl)-1-methyl-1H-indol-3-yl)-1,3,5-triazin-2-yl)amino)-2-((2-(dimethylamino)ethyl)(methyl)amino)-4-methoxyphenyl)acrylamide] | < 100 | < 100 | 100 to 500 | < 100 | – |
| C=CC(=O)Nc1cc(Nc2ncnc(-c3c(-c4ccccc4)n(C)c4ccccc34)n2)c(OC)cc1N(C)CCN(C)C [Example 3, N-(2-((2-(dimethylamino)ethyl)(methyl)amino)-4-methoxy-5-((4-(1-methyl-2-phenyl-1H-indol-3-yl)-1,3,5-triazin-2-yl)amino)phenyl)acrylamide] | < 100 | < 100 | 100 to 500 | < 100 | – |
| C=CC(=O)Nc1cc(Nc2ncnc(-c3c(C4CCOCC4)n(C)c4ccccc34)n2)c(OC)cc1N(C)CCN(C)C [Example 4, N-(2-((2-(dimethylamino)ethyl)(methyl)amino)-4-methoxy-5-((4-(1-methyl-2-(tetrahydro-2H-pyran-4-yl)-1H-indol-3-yl)-1,3,5-triazin-2-yl)amino)phenyl)acrylamide] | < 100 | – | 100 to 500 | 100 to 500 | B (Group B compounds have an IC50 value for the indicated mutant between about 100 to about 500 nM) |
| C=CC(=O)Nc1cc(Nc2nccc(-c3c(-c4cncc(Cl)c4)n(C)c4ccccc34)n2)c(OC)cc1N(C)CCN(C)C [Example 6, N-(5-((4-(2-(5-chloropyridin-3-yl)-1-methyl-1H-indol-3-yl)pyrimidin-2-yl)amino)-2-((2-(dimethylamino)ethyl)(methyl)amino)-4-methoxyphenyl)acrylamide] | < 100 | < 100 | 100 to 500 | < 100 | – |
| C=CC(=O)Nc1cc(Nc2ncc(C(=O)OC)c(-c3cn(C)c4ccccc34)n2)c(OC)cc1N(C)CCN(C)C [Example 8, methyl 2-((5-acrylamido-4-((2-(dimethylamino)ethyl)(methyl)amino)-2-methoxyphenyl)amino)-4-(1-methyl-1H-indol-3-yl)pyrimidine-5-carboxylate] | < 100 | < 100 | < 100 | < 100 | – |
| C=CC(=O)Nc1cc(Nc2ncc(C(=O)OC3COC3)c(-c3cn(C)c4ccccc34)n2)c(OC)cc1N(C)CCN(C)C [Example 11, oxetan-3-yl 2-((5-acrylamido-4-((2-(dimethylamino)ethyl)(methyl)amino)-2-methoxyphenyl)amino)-4-(1-methyl-1H-indol-3-yl)pyrimidine-5-carboxylate] | < 100 | < 100 | < 100 | < 100 | – |
| C=CC(=O)Nc1cc(Nc2ncc(C(=O)OC3CN(C)C3)c(-c3cn(C)c4ccccc34)n2)c(OC)cc1N(C)CCN(C)C [Example 12, 1-methylazetidin-3-yl 2-((5-acrylamido-4-((2-(dimethylamino)ethyl)(methyl)amino)-2-methoxyphenyl)amino)-4-(1-methyl-1H-indol-3-yl)pyrimidine-5-carboxylate] | > 1000 | > 1000 | > 1000 | > 1000 | – |
| C=CC(=O)Nc1cc(Nc2ncc(C(=O)OCC3CC3)c(-c3cn(C)c4ccccc34)n2)c(OC)cc1N(C)CCN(C)C [Example 13, cyclopropylmethyl 2-((5-acrylamido-4-((2-(dimethylamino)ethyl)(methyl)amino)-2-methoxyphenyl)amino)-4-(1-methyl-1H-indol-3-yl)pyrimidine-5-carboxylate] | < 100 | < 100 | < 100 | < 100 | – |
| C=CC(=O)Nc1cc(Nc2ncc(C(=O)OC3CCC3)c(-c3cn(C)c4ccccc34)n2)c(OC)cc1N(C)CCN(C)C [Example 14, cyclobutyl 2-((5-acrylamido-4-((2-(dimethylamino)ethyl)(methyl)amino)-2-methoxyphenyl)amino)-4-(1-methyl-1H-indol-3-yl)pyrimidine-5-carboxylate] | < 100 | < 100 | < 100 | < 100 | – |
| C=CC(=O)Nc1cc(Nc2ncc(Cl)c(-c3cnn4ccccc34)n2)c(OC)cc1N(C)CCN1CCN(C)CC1 [Example 27, N-(5-((5-chloro-4-(pyrazolo[1,5-a]pyridin-3-yl)pyrimidin-2-yl)amino)-4-methoxy-2-(methyl(2-(4-methylpiperazin-1-yl)ethyl)amino)phenyl)acrylamide] | 500 to 1000 | < 100 | > 1000 | – | – |
| C=CC(=O)Nc1cc(Nc2ncc(Cl)c(-c3cnn4ccccc34)n2)c(OC)cc1N(C)CCN(C)CCF [Example 33, N-(5-((5-chloro-4-(pyrazolo[1,5-a]pyridin-3-yl)pyrimidin-2-yl)amino)-2-((2-((2-fluoroethyl)(methyl)amino)ethyl)(methyl)amino)-4-methoxyphenyl)acrylamide] | 100 to 500 | < 100 | 500 to 1000 | – | – |
| C=CC(=O)Nc1cc(Nc2ncc(Cl)c(-c3cn(C)c4c5c(ccc34)CCC5)n2)c(OC)cc1N(C)CCN(C)C [Example 43, N-(5-((5-chloro-4-(1-methyl-1,6,7,8-tetrahydrocyclopenta[g]indol-3-yl)pyrimidin-2-yl)amino)-2-((2-(dimethylamino)ethyl)(methyl)amino)-4-methoxyphenyl)acrylamide] | < 100 | < 100 | 100 to 500 | – | – |
| C=CC(=O)Nc1cc(Nc2ncc(Cl)c(-c3cn(C)c4ccccc34)n2)c(OC)cc1O[C@@H](COCC)CN(C)C [Example 44, (R)-N-(5-((5-chloro-4-(1-methyl-1H-indol-3-yl)pyrimidin-2-yl)amino)-2-((1-(dimethylamino)-3-ethoxypropan-2-yl)oxy)-4-methoxyphenyl)acrylamide] | 100 to 500 | < 100 | 500 to 1000 | – | – |
| C=CC(=O)Nc1cc(Nc2ncc(Cl)c(-c3cn(C)c4ccccc34)n2)c(OC)cc1C#CCN(C)C [Example 45, N-(5-((5-chloro-4-(1-methyl-1H-indol-3-yl)pyrimidin-2-yl)amino)-2-(3-(dimethylamino)prop-1-yn-1-yl)-4-methoxyphenyl)acrylamide] | 100 to 500 | < 100 | 500 to 1000 | – | – |
| C=CC(=O)Nc1cc(Nc2ncc(Cl)c(-c3cn(C)c4ccccc34)n2)c(OC)cc1C#CC(C)(C)N(C)C [Example 46, N-(5-((5-chloro-4-(1-methyl-1H-indol-3-yl)pyrimidin-2-yl)amino)-2-(3-(dimethylamino)-3-methylbut-1-yn-1-yl)-4-methoxyphenyl)acrylamide] | 100 to 500 | < 100 | 500 to 1000 | – | – |
| C=CC(=O)Nc1cc(Nc2ncc(Cl)c(-c3cnn4ccccc34)n2)c(OC)cc1OC(COC)CN(CC)CC (stereo not drawn) [Example 47, N-(5-((5-chloro-4-(pyrazolo[1,5-a]pyridin-3-yl)pyrimidin-2-yl)amino)-2-((1-(diethylamino)-3-methoxypropan-2-yl)oxy)-4-methoxyphenyl) acrylamide] | 100 to 500 | < 100 | 500 to 1000 | – | – |
| C=CC(=O)Nc1cc(Nc2ncc(Cl)c(-c3cnn4ccccc34)n2)c(OC)cc1OCCN1CCCC1 [Example 49, N-(5-((5-chloro-4-(pyrazolo[1,5-a]pyridin-3-yl)pyrimidin-2-yl)amino)-4-methoxy-2-(2-(pyrrolidin-1-yl)ethoxy)phenyl)acrylamide] | 100 to 500 | < 100 | 500 to 1000 | – | – |
| C=CC(=O)Nc1cc(Nc2ncc(Cl)c(-c3cnn4ccccc34)n2)c(OC)cc1OCCN1CCOCC1 [Example 50, N-(5-((5-chloro-4-(pyrazolo[1,5-a]pyridin-3-yl)pyrimidin-2-yl)amino)-4-methoxy-2-(2-morpholinoethoxy)phenyl)acrylamide] | > 1000 | < 100 | > 1000 | – | – |
| C=CC(=O)Nc1cc(Nc2ncc(Cl)c(-c3cnn4ccccc34)n2)c(OC)cc1N(C)CCN(CC)CC [Example 53, N-(5-((5-chloro-4-(pyrazolo[1,5-a]pyridin-3-yl)pyrimidin-2-yl)amino)-2-((2-(diethylamino)ethyl)-(methyl)amino)-4-methoxyphenyl)acrylamide] | 100 to 500 | < 100 | 500 to 1000 | – | – |
| C=CC(=O)Nc1cc(Nc2ncc(Cl)c(-c3cnn4ccccc34)n2)c(OC)cc1N(C)CCN1CCOCC1 [Example 54, N-(5-((5-chloro-4-(pyrazolo[1,5-a]pyridin-3-yl)pyrimidin-2-yl)amino)-4-methoxy-2-(methyl(2-morpholinoethyl)amino)phenyl)-acrylamide] | 500 to 1000 | < 100 | > 1000 | – | – |
| C=CC(=O)Nc1cc(Nc2nccc(-c3cn(C)c4ccccc34)n2)c(OC)cc1N(C)CCNC [Example 57, N-(4-methoxy-2-(methyl(2-(methylamino)ethyl)amino)-5-((4-(1-methyl-1H-indol-3-yl)pyrimidin-2-yl)amino)phenyl)acrylamide] | < 100 | – | 100 to 500 | 100 to 500 | – |
